IC50 data for 47 compounds are collected here from US12398111B2, “Triazine compounds and pharmaceutical use thereof” (Japan Tobacco Inc., priority 2014, dated 2025).

Structures are written as SMILES.

The assay has as its target T1, human mPGES-1 (Homo sapiens, UniProt O14684).
T1 construct: made in house; host or cells: FreeStyle CHO-S cells (Chinese hamster ovary), transient transfection with pcDNA3.1(+)/human mPGES-1; microsome fraction used
T1 sequence (O14684 1-152): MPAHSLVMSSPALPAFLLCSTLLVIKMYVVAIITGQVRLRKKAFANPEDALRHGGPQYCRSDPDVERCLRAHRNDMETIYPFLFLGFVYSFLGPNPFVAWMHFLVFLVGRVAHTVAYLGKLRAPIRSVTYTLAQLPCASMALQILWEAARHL
Put plainly: Evaluation of human mPGES-1 enzyme inhibitory activity (PGE2 measured by HTRF, microsome fraction of CHO-S cells expressing human mPGES-1). It is filed as biochemical. To be noted: IC50 value; microsome fraction of CHO-S cells expressing human mPGES-1, PGE2 by HTRF. How it is done:
That is, the amount of PGE2 produced by human mPGES-1 in the presence of a test article was measured by the HTRF (homogeneous time resolved fluorescence) method, based on which the human mPGES-1 enzyme inhibitory activity of the test article was determined.
1) Preparation of Human mPGES-1 Expressing Cell Microsome Fraction
A DNA fragment containing human mPGES-1, which is added with a BamHI recognition cleavage sequence immediately before the translation initiation codon and an EcoRI recognition cleavage sequence immediately after the translation termination codon was amplified by the PCR (Polymerase Chain Reaction) method using a human mPGES-1 expression plasmid DNA (pME-18S/iPGES-1) prepared in-house as a template. The purified DNA fragment was digested with BamHI and EcoRI, and ligated to pcDNA3.1(+) (Invitrogen, model number V790-20), similarly digested with BamHI and EcoRI, by using a DNA Ligation kit ver.2.1 (Takara Bio, model number 6022). The human mPGES-1 expression plasmid DNA was isolated from Escherichia coli DH5a (TOYOBO, model number DNA-903) transformed with the obtained ligation product. The base sequence of human mPGES-1 cloned to a vector was determined by the Dye Terminator method by using BigDye Terminator v3.1 Cycle Sequencing Kit (Applied Biosystems, #4337455).
Human mPGES-1 expression plasmid DNA was transfected into Chinese hamster ovary-derived cells (FreeStyle CHO-S Cell, Invitrogen, #R800-07) by using a transgene reagent (FreeStyle MAX Reagent (Invitrogen, #16447-100)), and cultured with shaking (8% CO2, 37° C.) in a medium containing 8 mmol/L L-glutamine (GIBCO FreeStyle CHO Expression Medium, Invitrogen, #12651-022) for 48 hr.
The CHO-S cells were suspended in Homogenate Buffer (100 mmol/L potassium phosphate (pH 7.4), 250 mmol/L Sucrose, 100 mmol/L EDTA, complete EDTA free (Roche, #1873580)). Using an ultrasonic disruptor UD-201 (Tomy Seiko), the suspended cells were disrupted at output:3, duty cycle:50 for 30 seconds. The precipitate was removed by centrifugation (1,000×g, 5 min, 4° C.), is and the supernatant was centrifuged (5,000×g, 10 min, 4° C.). The supernatant was further centrifuged (105,000×g, 60 min, 4° C.). The obtained precipitate was suspended in Resuspension Buffer (100 mmol/L potassium phosphate (pH 7.4), 250 mmol/L sucrose, 100 mmol/L EDTA, 10% glycerol) to give a microsome fraction.
The protein concentration of the microsome fraction was measured by the Bradford method (Protein Assay Kit, Bio-Rad). The microsome fraction was rapidly frozen in liquid nitrogen and preserved at −80° C. Human mPGES-1 in the microsome fraction was detected by Western Blot using rabbit anti-mPGES-1 polyclonal antibody (ThermoFisher Scientific, #PA1-10264).
2) Evaluation of Human mPGES-1 Enzyme Inhibitory Activity
A test article solution diluted with 0.1 mol/L potassium phosphate, pH 7.4 (hereinafter to be referred to as KPB) or DMSO (Nacalai Tesque, #13407-45) was added at 5 μL/well to 96 well V-bottom plate (Corning, #3363). The final DMSO concentration during the reaction was set to 2% (v/v). Furthermore, a microsome fraction of CHO-S cells expressing human mPGES-1, which was diluted with reduced GSH (12.5 mmol/L KPB solution, SIGMA, #G6529-25G) such that the protein concentration was 5 μg/mL, was added at 20 μL/well. The amount of the microsome fraction used is the amount of microsome fraction within a range where the amount of PGE2 produced under the reaction conditions shown below and the amount of microsome fraction used show linearity. To the blank was added reduced GSH (12.5 mmol/L KPB solution) at 20 μL/well.
(Time-resolved FRET reads energy transfer from a long-lived donor to a nearby acceptor.)
As usually defined, the IC50 is the concentration at which inhibition is half-maximal. With `CC(C)OC(=O)NCc1ccc(Cl)c(-c2nc(O)nc(-c3ccc(C(F)(F)F)cc3)n2)c1` [Example 1-39], it took 1.9 nM to reach half-maximal inhibition (IC50).

Turning to `CN(C)C(=O)Cc1ccc(Cl)c(-c2nc(O)nc(-c3ccc(C(F)(F)F)cc3)n2)c1` [Example 1-40], inhibition was half-maximal at 2230 nM (IC50). The value for `CC(C)(C)NC(=O)Cc1ccc(Cl)c(-c2nc(O)nc(-c3ccc(C(F)(F)F)cc3)n2)c1` [Example 1-41] was 2.3 nM.

With `O=S(=O)(NCc1ccc(Cl)c(-c2nc(O)nc(-c3ccc(C(F)(F)F)cc3)n2)c1)C1CCCC1` [Example 1-42], half-maximal inhibition (IC50) required 1 nM. With `CC(C)(C)C(=O)NCc1ccc(Cl)c(-c2nc(O)nc(-c3ccccc3)n2)c1` [Example 1-43] the figure was 2 nM; with `CCCc1ccc(-c2nc(O)nc(-c3cc(CNC(=O)C(C)(C)C)ccc3Cl)n2)cc1` [Example 1-44], 0.6 nM; with `Cc1ccc(CO)cc1-c1nc(O)nc(-c2ccc(C(F)(F)F)cc2)n1` [Example 1-45], 138 nM. With `CC(C)c1ccc(-c2nc(O)nc(-c3cc(CNC(=O)C(C)(C)C)ccc3Cl)n2)cc1` [Example 1-46] the figure was 0.7 nM. The value for `CC(=O)NCc1ccc(C)c(-c2nc(O)nc(-c3ccc(C(F)(F)F)cc3)n2)c1` [Example 1-47] was 43 nM; that for `Cc1ccc(CNC(=O)C(C)(C)C)cc1-c1nc(O)nc(-c2ccc(C(F)(F)F)cc2)n1` [Example 1-48] was 0.9 nM; that for `CC(C)c1cccc(-c2nc(O)nc(-c3cc(CNC(=O)C(C)(C)C)ccc3Cl)n2)c1` [Example 1-49] was 0.9 nM. Turning to `CCCc1cccc(-c2nc(O)nc(-c3cc(CNC(=O)C(C)(C)C)ccc3Cl)n2)c1` [Example 1-50], the IC50 came to 0.9 nM. The value for `CC1(C(=O)NCc2ccc(Cl)c(-c3nc(O)nc(-c4ccccc4)n3)c2)CCCCC1` [Example 1-52] was 0.6 nM; that for `COC(C)(C)C(=O)NCc1ccc(Cl)c(-c2nc(O)nc(-c3ccccc3)n2)c1` [Example 1-53] was 4.5 nM. The value for `CC(C)(C)C(=O)NCc1ccc(Cl)c(-c2nc(O)nc(-c3cccc(C(F)(F)F)c3)n2)c1` [Example 1-54] was 0.9 nM; that for `CCc1cccc(-c2nc(O)nc(-c3cc(CNC(=O)C(C)(C)C)ccc3Cl)n2)c1` [Example 1-55] was 1.1 nM. With `COC(C)(C)C(=O)NCc1ccc(Cl)c(-c2nc(O)nc(-c3ccc(C(F)(F)F)cc3)n2)c1` [Example 1-56] the figure was 0.6 nM; with `CC(C)(C)C(=O)NCc1ccc(Cl)c(-c2nc(O)nc(-c3cccc(C(C)(C)C)c3)n2)c1` [Example 1-57], 0.5 nM; with `CCC(C)(C)C(=O)NCc1ccc(Cl)c(-c2nc(O)nc(-c3cccc(C(F)(F)F)c3)n2)c1` [Example 1-58], 0.5 nM. The compound `CC(C)(C(=O)NCc1ccc(Cl)c(-c2nc(O)nc(-c3cccc(C(F)(F)F)c3)n2)c1)C(F)(F)F` [Example 1-59] returned an IC50 of 0.6 nM.

As to `CC(C)(C)C(=O)NCc1ccc(Cl)c(-c2nc(O)nc(-c3ccc(OC(F)(F)F)cc3)n2)c1` [Example 1-60], the IC50 came out at 0.4 nM. The value for `CC(C)(C)C(=O)NCc1ccc(Cl)c(-c2nc(O)nc(-c3cccc(OC(F)(F)F)c3)n2)c1` [Example 1-61] was 0.7 nM; that for `CCOc1cccc(-c2nc(O)nc(-c3cc(CNC(=O)C(C)(C)C)ccc3Cl)n2)c1` [Example 1-62] was 1 nM. The value for `Cc1ccc(-c2nc(O)nc(-c3cc(CNC(=O)C(C)(C)C)ccc3Cl)n2)cc1` [Example 1-63] was 0.5 nM. The value for `Cc1cccc(-c2nc(O)nc(-c3cc(CNC(=O)C(C)(C)C)ccc3Cl)n2)c1` [Example 1-64] was 1.9 nM. Consider `O=C(NCc1ccc(Cl)c(-c2nc(O)nc(-c3ccccc3)n2)c1)C12CC3CC(CC(C3)C1)C2` [Example 1-65], for which 8.6 nM corresponded to half-maximal inhibition (IC50). With `O=C(NCc1ccc(Cl)c(-c2nc(O)nc(-c3ccccc3)n2)c1)C1CCC1` [Example 1-66] the figure was 4.1 nM; with `O=C(NCc1ccc(Cl)c(-c2nc(O)nc(-c3ccccc3)n2)c1)C1CCCC1` [Example 1-67], 1 nM; with `O=C(NCc1ccc(Cl)c(-c2nc(O)nc(-c3ccccc3)n2)c1)C1(C(F)(F)F)CCCC1` [Example 1-68], 0.3 nM. On to `CC(C)(C(=O)NCc1ccc(Cl)c(-c2nc(O)nc(-c3ccccc3)n2)c1)C(F)(F)F` [Example 1-69], for which half-maximal inhibition (IC50) required 0.3 nM. For `O=C(NCc1ccc(Cl)c(-c2nc(O)nc(-c3ccccc3)n2)c1)C1(C(F)(F)F)CCC1` [Example 1-70], the IC50 worked out at 0.7 nM. The value for `O=C(NCc1ccc(Cl)c(-c2nc(O)nc(-c3ccccc3)n2)c1)C1CCCCC1` [Example 1-71] was 2.5 nM; that for `CC1(C(=O)NCc2ccc(Cl)c(-c3nc(O)nc(-c4ccccc4)n3)c2)CCC1` [Example 1-72] was 1.3 nM.

`CC1(C(=O)NCc2ccc(Cl)c(-c3nc(O)nc(-c4ccccc4)n3)c2)CCCC1` [Example 1-73] showed an IC50 of 0.6 nM. The compound `CC(C)(C)C(=O)NCc1ccc(Cl)c(-c2nc(O)nc(-c3ccc(F)cc3)n2)c1` [Example 1-74] had an IC50 of 0.6 nM. Regarding `COCc1cccc(-c2nc(O)nc(-c3cc(CNC(=O)C(C)(C)C)ccc3Cl)n2)c1` [Example 1-75], inhibition was half-maximal at 6.7 nM (IC50). With `CC(C)(C)C(=O)NCc1ccc(Cl)c(-c2nc(O)nc(-c3cccc(F)c3)n2)c1` [Example 1-76] the figure was 1.7 nM; with `CC(C)(C(=O)NCc1ccc(Cl)c(-c2nc(O)nc(-c3cccc(OC(F)(F)F)c3)n2)c1)C(F)(F)F` [Example 1-77], 0.9 nM; with `O=C(NCc1ccc(Cl)c(-c2nc(O)nc(-c3cccc(OC(F)(F)F)c3)n2)c1)C1(C(F)(F)F)CCCC1` [Example 1-78], 2.2 nM. The compound `O=C(NCc1ccc(Cl)c(-c2nc(O)nc(-c3cccc(C(F)(F)F)c3)n2)c1)C1(C(F)(F)F)CCCC1` [Example 1-79] displayed an IC50 of 1.2 nM.

In the case of `CC(C)(C)c1cccc(-c2nc(O)nc(-c3cc(CNC(=O)C4(C(F)(F)F)CCCC4)ccc3Cl)n2)c1` [Example 1-80], 3.1 nM corresponded to half-maximal inhibition (IC50). `CC(C)Oc1ccc(-c2nc(O)nc(-c3cc(CNC(=O)C(C)(C)C)ccc3Cl)n2)cc1` [Example 1-82] had an IC50 of 0.8 nM. The value for `CC(C)OC(=O)NCc1ccc(Cl)c(-c2nc(O)nc(-c3cccc(C(C)(C)C)c3)n2)c1` [Example 1-83] was 11 nM. With `COC(C)(C)C(=O)NCc1ccc(Cl)c(-c2nc(O)nc(-c3cccc(C(C)(C)C)c3)n2)c1` [Example 1-84] the figure was 0.6 nM.

The compound `CCOc1cccc(-c2nc(O)nc(-c3cc(CNC(=O)C4(C(F)(F)F)CCCC4)ccc3Cl)n2)c1` [Example 1-85] registered an IC50 of 0.5 nM. With `CC(C)(C)COc1ccc(-c2nc(O)nc(-c3cc(CNC(=O)C(C)(C)C(F)(F)F)ccc3Cl)n2)cc1` [Example 1-86, N-(4-chloro-3-{4-[4-(2,2-dimethylpropoxy)phenyl]-6-hydroxy-1,3,5-triazin-2-yl}benzyl)-3,3,3-trifluoro-2,2-dimethylpropionamide] the figure was 5.8 nM; with `CO[C@](C)(C(=O)NCc1ccc(Cl)c(-c2nc(O)nc(-c3ccccc3)n2)c1)C(F)(F)F` [Example 1-87], 0.8 nM.
